Reference: patent publication US20090047214A1, “Novel methylation marker” (OncoMethylome Sciences S.A., priority 2006, published 2009)

Tests used:
[1] = test system: primary colorectal tumors; assay: Overall survival of colorectal cancer patients treated with irinotecan, by WRN methylation status (Kaplan-Meier); format: in vivo, human; conditions: WRN methylated colon tumors (n=45)
Experimental: Contingency tables were analyzed by Fisher's exact test. Overall survival curves were estimated by the Kaplan-Meier method and were compared with the use of the log-rank test. All statistical analyses were performed using the SPSS version 10.1 program (SPSS Inc, Chicago, Ill.).

[2] = test system: WRN-transfected MDA-MB-231 cells; assay: Cytogenetic chromosomal breakage analysis; format: cell-based, human; set-up: dose or concentration left out as unconfirmed
Experimental: (§1) The percentage of apoptotic cells was determined by flow cytometry using Vybrant® Apoptosis Assay Kit #4-YO-PRO®-1/propidium iodide (Molecular Probes/Invitrogen). Briefly, cells were washed twice with ice cold PBS and resuspended in PBS containing YO-PRO®-1/propidium iodide. Apoptotic cells were identified by flow cytometry after 20 min of incubation. Cytogenetic assay was performed as previously described (Herranz et al., 2006) analyzing one-hundred metaphases for each experimental condition.
(§2) The WRN coding sequence corresponding to the cDNA from a BLCL lymphoblastoid-EBV immortalized cell line was amplified by PCR and directly cloned into the pGEM-T Easy Vector (Promega, Winsconsin USA). The WRN insert was subcloned into the pEGFP-N1 expression vector (Invitrogen) and confirmed by sequencing. For transfection experiments we used the pEGFP-N1 vector containing the WRN gene, or the pEGFP-N1 empty vector. Transfection of MDA-MB-231 and U937 cells was performed by electroporating […] in 0.8 ml PBS with 40 μg of the vector at 250 V and 975 μF. After electroporation, cells were washed with PBS and seeded with 10^6 cells/ml in fresh medium containing 20% FBS. Transfected cells were selected by the addition of G418 (600 μg/ml).

[3] = test system: lymphoblastoid cell line from a WS patient (WS-/-); assay: Apoptosis by flow cytometry; format: cell-based, human; conditions: WS patient lymphoblastoid cells, positive control
Experimental: (§3) The eleven human cancer cell lines examined in this study were obtained from the American Type Culture Collection (ATCC) (Rockland, Md., USA) and the German Collection of Microorganisms and Cell Cultures (DSMZ, Braunschweig, Germany). The cell lines represented three different types of malignancies, colon (HCT-116, COLO-205), breast (MCF-7, MDA-MB-468, MDAMB-231) and leukaemia (HL-60, KG1a, U937, REH, Jurkat, K562). Cell lines were maintained in appropriate media and treated with 1 μM 5-aza-2′-deoxycytidine (Sigma) for 3 days to achieve demethylation, as previously described (Herman et al., 1998; Ropero et al., 2004). WS−/− cells (AG11395) were obtained from the Coriel Cell Repositories (Camden, N.J., USA). The collection of primary tumor samples analyzed has been described elsewhere (Esteller et al., 2001; Ropero et al., 2004).
as §1

[4] = test system: MDA-MB-231 cells (WRN aberrant methylation); assay: Cytogenetic chromosomal breakage analysis; format: cell-based, human
Experimental: as §1

[5] = test system: HL60 cells (unmethylated WRN promoter); assay: Cytogenetic chromosomal breakage analysis; format: cell-based, human; conditions: metaphases
Experimental: as §1

[6] = test system: MCF-7 cells (unmethylated WRN promoter); assay: Cytogenetic chromosomal breakage analysis; format: cell-based, human; conditions: MCF-7, WRN unmethylated; metaphases
Experimental: as §1

[7] = test system: U937 cells (WRN promoter hypermethylation); assay: Apoptosis by flow cytometry; format: cell-based, human; conditions: U937, WRN hypermethylated; increasing concentrations
Experimental: as §1

[8] = test system: MDA-MB-231 cells (WRN promoter hypermethylation); assay: Apoptosis by flow cytometry; format: cell-based, human; conditions: MDA-MB-231, WRN hypermethylated; increasing concentrations
Experimental: as §1

[9] = test system: MCF-7 cells (unmethylated WRN promoter); assay: Apoptosis by flow cytometry; format: cell-based, human; conditions: MCF-7, WRN unmethylated
Experimental: as §1

[10] = test system: lymphoblastoid cells from a WS patient; assay: Cytogenetic chromosomal breakage analysis; format: cell-based, human; conditions: metaphases
Experimental: as §3, §1

[11] = test system: WRN-transfected U937 cells; assay: Apoptosis by flow cytometry; format: cell-based, human; conditions: U937 transfected with WRN
Experimental: as §1, §2

[12] = test system: WRN-transfected MDA-MB-231 cells; assay: Apoptosis by flow cytometry; format: cell-based, human; conditions: MDA-MB-231 transfected with WRN
Experimental: as §1, §2

[13] = test system: WRN-associated exonuclease activity in U937 cells; assay: Exonuclease activity assay in WRN-immunoprecipitated cell extracts; format: cell-based, human; conditions: 1 μM for 3 days
Experimental: as §3
The exonuclease enzymatic activity was measured as previously described (Brosh et al., 2001). […] The digestion products of these reactions were separated on 15% denaturing polyacrylamide gels, visualized using a PhosphorImager (Molecular Dynamics), and quantitated using ImageQuant software (Molecular Dynamics).

[14] = test system: WRN RNA transcript and protein; assay: Reactivation of WRN expression in WRN-hypermethylated cancer cell lines (RT-PCR, western blot, immunofluorescence); format: cell-based, human; conditions: HCT-116, COLO-205, MDA-MB-231 and U937 cell lines; 1 μM for 3 days
Experimental: as §3
RNA was isolated using TRIzol (Life Technologies, Gaithersburg, Md., USA). 2 μg of RNA was reverse-transcribed using SuperScript II reverse transcriptase (Gibco/BRL) and amplified using specific primers for WRN (forward: 5′-GCATGTGTTCGGAAGAGTGTTT-3-(SEQ ID. NO: 6), reverse: 5′-TGACATGGAAGAAACGTGGAA-3 (SEQ ID. NO: 7)) and for GAPDH. […] Cell lysates for protein analysis were prepared and analyzed by western blotting using the WRN antibody ab200 (Rabbit Polyclonal, Abcam). […]

CCc1c2c(nc3ccc(OC(=O)N4CCC(N5CCCCC5)CC4)cc13)-c1cc3c(c(=O)n1C2)COC(=O)[C@]3(O)CC [irinotecan]
median time to the death of the patient [1]: 39.4 months

CC[C@@]1(O)C(=O)OCc2c1cc1n(c2=O)Cc2cc3ccccc3nc2-1 [camptothecin]
chromosomal breakage ([2]; MDA-MB-231 transfected with WRN, metaphases): acquired a resistance | induction of apoptosis [3]: same phenomena | chromosomal breakage ([4]; MDA-MB-231, WRN methylated, metaphases): extremely sensitive | chromosomal breakage [5]: minimal chromosomal breakage | chromosomal breakage [6]: minimal chromosomal breakage | induction of apoptosis [7]: optimal inductors of apoptosis | induction of apoptosis [8]: optimal inductors of apoptosis | induction of apoptosis [9]: markedly resistant | chromosomal breakage [10]: extremely sensitive | induction of apoptosis [11]: resistant to the apoptosis | induction of apoptosis [12]: resistant to the apoptosis

Nc1ncn([C@H]2C[C@H](O)[C@@H](CO)O2)c(=O)n1 [5-aza-2′-deoxycytidine]
WRN-associated exonuclease activity [13]: significant increase | expression of WRN RNA transcript and protein [14]: restored the expression

CO[C@@]12[C@H](COC(N)=O)C3=C(C(=O)C(C)=C(N)C3=O)N1C[C@@H]1N[C@@H]12 [mitomycin C]
chromosomal breakage ([2]; MDA-MB-231 transfected with the WRN gene): resistance to the genome damage | induction of apoptosis [3]: same phenomena | chromosomal breakage ([4]; MDA-MB-231 (empty vector), 50 mg/ml): massive breakage | induction of apoptosis [7]: optimal inductors of apoptosis | induction of apoptosis [8]: optimal inductors of apoptosis | induction of apoptosis [9]: markedly resistant | induction of apoptosis [11]: resistant to the apoptosis | induction of apoptosis [12]: resistant to the apoptosis
